One assay relates to TNF-α. Nature of the assay: TNF-α release from U937 cells (LPS-induced, DELFIA). Format: cell-based. The settings on record: Homo sapiens, U-937; for IC50: PMA-pretreated U937 cells, 1 ng/ml LPS, 18 hours, read-out: IC50 LPS-induced TNF production in U937 cells. On the procedure: The effect of the compounds of the invention on TNF-α release was investigated using a known method (Lozanski, G. et al., (1992), J. Rheumatol; 19, 921-26).
The human histolytic lymphoma U937 cell line was obtained from a commercial source (ECACC, Salisbury, UK) and maintained in RPMI 1640 medium supplemented with 2 mM L-glutamine and 5% fetal bovine serum. The cells were pretreated with 25 ng/ml PMA for six hours and then exposed to dose ranges of the compound to be tested followed by the addition of 1 ng/ml LPS.
After 18 hours incubation at 37° C. with 5% CO2 the cell culture supernatants were harvested and stored at −70° C., until required for determination of TNF-α secretion by Dissociation Enhanced Lanthanide Fluorescence Immuno Assay (DELFIA). The effect of the compounds on cell cytotoxicity was measured using the tetrazolium salt, XTT (2,3-bis[2-methoxy-4-nitro-5-sulphophenyl]-2H-tetrazolium-5-carboxanilide salt) and effects on protein synthesis were determined by investigation of [^3H] Leucine uptake.

In a further assay the test system is IL-1β. Kind of assay: IL-1β release from human monocytes (LPS-induced, ELISA). Format: cell-based. As to conditions: Monocyte; for IC50: human monocytes, 1 ng/ml LPS, 18 hours, read-out: IC50 LPS-induced IL-β production (monocytes). From the text:
The effect of the compounds of the invention on IL-Iβ release was investigated using a known method (Bakouche, O. et al., (1992), J. Immunol: 148, 84-91). Human monocytes were purified by elutriation from Buffy coats obtained from normal healthy donors after the separation of peripheral blood mononuclear cells (PBMC) on Lymphoprep. The freshly isolated monocytes were suspended in RPMI 1640 supplemented with 5% FBS and exposed to dose ranges of the compound to be tested followed by the addition of 1 ng/ml LPS. Cells were incubated for 18 hours at 37° C. with 5% CO2 and the cell culture supernatants harvested and stored at −70° C. Effects on the production of IL-1β were determined using an ELISA.
A general note: In an ELISA, binding on a coated surface is turned into a signal by an enzyme label.

On to `C/C=C/[C@@H]1OC(=O)C=C[C@@H]1C(=O)/C=C/C(C)=C/[C@@H](C)CCCCCC` [R in formula (I) is CH3, 3-((5S,6S)-5,6-dihydro-5-((6S)-4,6-dimethyldodeca-2E,4E-dienoyl)-2H-pyran-2-on-6-yl)-prop-2E-ene], for which the IC50 (in general, the concentration that inhibits the measured activity by half) in the assay with TNF-α was 80 nM; with IL-1β it was 190 nM. Further, the inhibition – broadly, the drop in the measured response relative to a control, in per cent – at 0.01 µM in the assay on TNF-α (concentration 0.01 μM) came out at 0.85%. Also, the inhibition at 0.04 µM with TNF-α (concentration 0.04 μM) amounted to 20%. Besides, the inhibition at 0.17 µM in the assay with TNF-α (concentration 0.17 μM) came out at 61%. In addition, the inhibition at 0.7 µM in the assay on TNF-α (concentration 0.7 μM) worked out at 90%. Moreover, in the assay with TNF-α (concentration 2.8 μM), the inhibition at 2.8 µM is 99%. Further, the inhibition at 0.044 µM in the assay with IL-1β (Homo sapiens, concentration 0.044 μM) was 23%. For the same compound, the inhibition at 0.22 µM with IL-1β (Homo sapiens, concentration 0.22 μM) was found to be 41%. In the assay on IL-1β (Homo sapiens, concentration 1.1 μM), the inhibition at 1.1 µM amounted to 72%. The inhibition at 5.5 µM in the assay with IL-1β (Homo sapiens, concentration 5.5 μM) stood at 88%.
As to `CCCCCC[C@H](C)/C=C(C)/C=C/C(=O)[C@H]1C=CC(=O)O[C@H]1/C=C/C(=O)O` [R in formula (I) is CO2H, 3-((5S,6S)-5,6-dihydro-5-((6S)-4,6-dimethyldodeca-2E,4E-dienoyl)-2H-pyran-2-on-6-yl)-prop-2E-enoic acid], the 50% inhibitory concentration (IC50) in the assay on TNF-α and in the assay on IL-1β was 2000 nM throughout. Besides, in the assay with TNF-α (concentration 0.12 μM), the inhibition at 0.12 µM was found to be 47%. Also, the inhibition at 0.5 µM worked out at 77% with TNF-α (concentration 0.5 μM) and 14% with IL-1β (Homo sapiens, concentration 0.5 μM). The inhibition at 2 µM is 100% in the assay with TNF-α (concentration 2 μM) and 81.5% in the assay with IL-1β (Homo sapiens, concentration 2 μM). Also, the inhibition at 8 µM in the assay with TNF-α (concentration 8 μM) worked out at 107%. Moreover, the inhibition at 20 µM with IL-1β (Homo sapiens, concentration 20 μM) was 99%.

The values above are taken from patent US6784203B1, “Cytokine production inhibitors” (Cubist Pharmaceuticals, Inc., priority 2001, dated 2004).
